Assays:
EP4 receptor = target: T1, EP4 receptor (Homo sapiens, UniProt P35408); test: hEP4 cAMP assay (BT549 breast cancer cells, HTRF cAMP, PGE2 stimulation); assay type: cell-based; settings: antagonistic activity, PGE2 6 nM (EC80)
T1 construct: BT549 breast cancer cells, express high endogenous EP4 levels and very low EP2 levels; host or cells: BT549 breast cancer cells
In short: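 BT549 cells, with endogenous EP4 and very low EP2, were preincubated 45 min at room temperature with compound in HBSS/HEPES/BSA buffer with 2 mM IBMX. They were then stimulated 30 min with 6 nM PGE2 (EC80). cAMP was measured by HTRF competitive immunoassay against a calibrator; IC50 from duplicate dose-response as % of DMSO control.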

PTGER4 (EP4) = target: T2, PTGER4 (EP4) (Homo sapiens, UniProt P35408); test: hEP4 b-arrestin assay (PathHunter HEK 293 PTGER4 b-arrestin cells); assay type: cell-based; settings: antagonistic activity, beta-arrestin assay; read-out: hEP4 b-arr IC50
T2 construct: host or cells: HEK 293 (PathHunter PTGER4 b-arrestin cell line)
In short: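 PathHunter HEK 293 cells expressing ProLink-tagged human EP4 and EA-β-arrestin 2, seeded 24 h before. Compounds (10 μM–2 nM or 1 μM–0.2 nM) preincubated 15 min at 37 °C, then 20 nM PGE2 (EC80) for 120 min at 37 °C. β-gal complementation luminescence read; IC50 from duplicate dose-response curves versus DMSO control.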

T2 sequence (P35408 whole entry): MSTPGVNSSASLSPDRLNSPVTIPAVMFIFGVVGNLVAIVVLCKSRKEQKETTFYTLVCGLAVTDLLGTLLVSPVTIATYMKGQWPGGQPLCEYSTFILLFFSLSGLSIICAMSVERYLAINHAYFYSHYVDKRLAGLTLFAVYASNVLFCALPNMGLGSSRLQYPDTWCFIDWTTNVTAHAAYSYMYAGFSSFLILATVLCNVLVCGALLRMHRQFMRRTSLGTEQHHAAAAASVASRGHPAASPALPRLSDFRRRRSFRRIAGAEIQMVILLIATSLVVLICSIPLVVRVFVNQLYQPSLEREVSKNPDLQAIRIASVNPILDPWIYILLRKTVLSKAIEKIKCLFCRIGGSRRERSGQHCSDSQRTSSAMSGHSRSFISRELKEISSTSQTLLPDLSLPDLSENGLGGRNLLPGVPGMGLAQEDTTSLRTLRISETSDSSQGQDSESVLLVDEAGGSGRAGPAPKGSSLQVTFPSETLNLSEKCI
T1 sequence (P35408 whole entry): as above

| IC50 (EP4 receptor) [nM] | IC50 (PTGER4 (EP4)) [nM] | SMILES |
| --- | --- | --- |
| 901 | 911 | Cc1oc2c(C)cc(F)cc2c1CCNc1cc(-c2ccc(C(=O)O)c(OC3CCCC3)c2)ncn1 [Example 154, 2-Cyclopentyloxy-4-{6-[2-(5-fluoro-2,7-dimethyl-benzofuran-3-yl)-ethylamino]-pyrimidin-4-yl}-benzoic acid] |
| 479 | 247 | COc1ccc(Cl)c2c(CCNc3cc(-c4cc(C)c(C(=O)O)s4)ncn3)c(C)sc12 [Example 5, 5-{6-[2-(4-Chloro-7-methoxy-2-methyl-benzo[b]thiophen-3-yl)-ethylamino]-pyrimidin-4-yl}-3-methyl-thiophene-2-carboxylic acid] |
| 216 | 340 | COc1ccc(Cl)c2c(CCNc3cc(-c4ccc(C(=O)O)c(OC(C)C)c4)ncn3)c(C)sc12 [Example 98, 4-{6-[2-(4-Chloro-7-methoxy-2-methyl-benzo[b]thiophen-3-yl)-ethylamino]-pyrimidin-4-yl}-2-isopropoxy-benzoic acid] |
| 255 | 167 | CCOc1cc(-c2cc(NCCc3c(C)sc4c(C)ccc(F)c34)ncn2)ccc1CC(=O)O [Example 107, (2-Ethoxy-4-{6-[2-(4-fluoro-2,7-dimethyl-benzo[b]thiophen-3-yl)-ethylamino]-pyrimidin-4-yl}-phenyl)-acetic acid] |
| 550 | 1650 | COc1ccc(Cl)c2c(CCNc3cc(-c4ccc(C(=O)O)c(O)c4)ncn3)c(C)sc12 [Example 9, 4-{6-[2-(4-Chloro-7-methoxy-2-methyl-benzo[b]thiophen-3-yl)-ethylamino]-pyrimidin-4-yl}-2-hydroxy-benzoic acid] |
| 87 | 29 | CCOc1cc(-c2cc(NCCc3c(C)sc4c(C)ccc(F)c34)ncn2)ccc1OCC(=O)O [Example 118, (2-Ethoxy-4-{6-[2-(4-fluoro-2,7-dimethyl-benzo[b]thiophen-3-yl)-ethylamino]-pyrimidin-4-yl}-phenoxy)-acetic acid] |
| 429 | 17 | CCc1nc(-c2cc(NCCc3c(C)sc4c(C)cc(F)cc34)ncn2)sc1-c1noc(=O)[nH]1 [Example 163, 3-(4-Ethyl-2-{6-[2-(5-fluoro-2,7-dimethyl-benzo[b]thiophen-3-yl)-ethylamino]-pyrimidin-4-yl}-thiazol-5-yl)-[1,2,4]oxadiazol-5(4H)-one [tautomeric form: 3-(4-ethyl-2-(6-((2-(5-fluoro-2,7-dimethylbenzo[b]thiophen-3-yl)ethyl)amino)pyrimidin-4-yl)thiazol-5-yl)-[1,2,4]oxadiazol-5-ol]] |
| 105 | 84 | CCOc1cc(-c2cc(NCCc3c(C)sc4c(C)cc(F)cc34)ncn2)sc1CCC(=O)O [Example 97, 3-(3-Ethoxy-5-{6-[2-(5-fluoro-2,7-dimethyl-benzo[b]thiophen-3-yl)-ethylamino]-pyrimidin-4-yl}-thiophen-2-yl)-propionic acid] |
| 20 | 112 | CSc1cc(-c2cc(NCCc3c(C#N)sc4c(C)cc(F)cc34)ncn2)ccc1C(=O)O [Example 12, 4-{6-[2-(2-Cyano-5-fluoro-7-methyl-benzo[b]thiophen-3-yl)-ethylamino]-pyrimidin-4-yl}-2-methylsulfanyl-benzoic acid] |
| 42 | 57 | Cc1cc(F)cc2c(CCNc3cc(-c4ccc(CC(=O)O)c(OC(C)C)c4)ncn3)c(C#N)sc12 [Example 171, (4-{6-[2-(2-Cyano-5-fluoro-7-methyl-benzo[b]thiophen-3-yl)-ethylamino]-pyrimidin-4-yl}-2-isopropoxy-phenyl)-acetic acid] |
| 40 | 54 | CCOc1cc(-c2cc(NCCc3c(C#N)sc4c(C)cc(F)cc34)ncn2)cc(F)c1CC(=O)O [Example 165, (4-{6-[2-(2-Cyano-5-fluoro-7-methyl-benzo[b]thiophen-3-yl)-ethylamino]-pyrimidin-4-yl}-2-ethoxy-6-fluoro-phenyl)-acetic acid] |
| 17 | 50 | CCOc1cc(-c2cc(NCCc3c(C#N)sc4c(OC)cccc34)ncn2)ccc1CC(=O)O [Example 164, (4-{6-[2-(2-Cyano-7-methoxy-benzo[b]thiophen-3-yl)-ethylamino]-pyrimidin-4-yl}-2-ethoxy-phenyl)-acetic acid] |
| 867 | 810 | CCCOc1cc(-c2cc(NCCc3c(C)sc4c(Cl)ccc(Cl)c34)ncn2)ccc1C(=O)O [Example 102, 4-{6-[2-(4,7-Dichloro-2-methyl-benzo[b]thiophen-3-yl)-ethylamino]-pyrimidin-4-yl}-2-propoxy-benzoic acid] |
| 110 | 143 | CCOc1cc(-c2cc(NCCc3c(C)sc4c(C)c(F)ccc34)ncn2)ccc1OCC(=O)O [Example 119, (2-Ethoxy-4-{6-[2-(6-fluoro-2,7-dimethyl-benzo[b]thiophen-3-yl)-ethylamino]-pyrimidin-4-yl}-phenoxy)-acetic acid] |
| 20 | 7 | CCOc1cc(-c2cc(NCCc3c(C)sc4c(C)cc(F)cc34)ncn2)sc1-c1nnn[nH]1 [Example 158, {6-[4-Ethoxy-5-(1H-tetrazol-5-yl)-thiophen-2-yl]-pyrimidin-4-yl}-[2-(5-fluoro-2,7-dimethyl-benzo[b]thiophen-3-yl)-ethyl]-amine] |
| 450 | 238 | CCCOc1cc(-c2cc(NCCc3c(C)sc4c(C)c(F)ccc34)ncn2)ccc1C(=O)O [Example 99, 4-{6-[2-(6-Fluoro-2,7-dimethyl-benzo[b]thiophen-3-yl)-ethylamino]-pyrimidin-4-yl}-2-propoxy-benzoic acid] |
| 163 | 26 | CCOc1cc(-c2cc(NCCc3c(C)sc4c(C)cc(F)cc34)ncn2)sc1C(=O)NS(N)(=O)=O [Example 156, 3-Ethoxy-5-(6-((2-(5-fluoro-2,7-dimethylbenzo[b]thiophen-3-yl)ethyl)amino)pyrimidin-4-yl)-N-sulfamoylthiophene-2-carboxamide] |
| 296 | 403 | CCOc1cc(-c2cc(NCCc3c(C)sc4c(C)cc(F)cc34)ncn2)ccc1CC(=O)O [Example 110, (2-Ethoxy-4-{6-[2-(5-fluoro-2,7-dimethyl-benzo[b]thiophen-3-yl)-ethylamino]-pyrimidin-4-yl}-phenyl)-acetic acid] |
| 425 | 423 | CCOc1cc(-c2cc(NCCc3c(C)sc4c(C)cccc34)ncn2)ccc1C(C)C(=O)O (racemic) [Example 126, rac-2-(4-{6-[2-(2,7-Dimethyl-benzo[b]thiophen-3-yl)-ethylamino]-pyrimidin-4-yl}-2-ethoxy-phenyl)-propionic acid] |
| 129 | 75 | CCOc1cc(-c2cc(NCCc3c(C)oc4c(OC)cc(Cl)cc34)ncn2)ccc1OCC(=O)O [Example 121, (4-{6-[2-(5-Chloro-7-methoxy-2-methyl-benzofuran-3-yl)-ethylamino]-pyrimidin-4-yl}-2-ethoxy-phenoxy)-acetic acid] |
| 125 | 58 | CCOc1cc(-c2cc(NCCc3c(C)sc4c(OC)ccc(F)c34)ncn2)ccc1CC(=O)O [Example 105, (2-Ethoxy-4-{6-[2-(4-fluoro-7-methoxy-2-methyl-benzo[b]thiophen-3-yl)-ethylamino]-pyrimidin-4-yl}-phenyl)-acetic acid] |

| SMILES | IC50 (EP4 receptor) [nM] | IC50 (PTGER4 (EP4)) [nM] |
| --- | --- | --- |
| Cc1oc2c(Cl)cccc2c1CCNc1cc(-c2ccc(C(=O)O)c(OC3CCC3)c2)ncn1 [Example 137, 4-{6-[2-(7-Chloro-2-methyl-benzofuran-3-yl)-ethylamino]-pyrimidin-4-yl}-2-cyclobutoxy-benzoic acid] | 423 | 258 |
| COc1ccc(Cl)c2c(CCNc3cc(-c4ccc(C(=O)O)c(OC5CCC5)c4)ncn3)c(C)sc12 [Example 135, 4-{6-[2-(4-Chloro-7-methoxy-2-methyl-benzo[b]thiophen-3-yl)-ethylamino]-pyrimidin-4-yl}-2-cyclobutoxy-benzoic acid] | 198 | 235 |
| COc1ccc(F)c2c(CCNc3cc(-c4ccc(C(=O)O)c(OC5CCC5)c4F)ncn3)c(C)sc12 [Example 146, 2-Cyclobutoxy-3-fluoro-4-{6-[2-(4-fluoro-7-methoxy-2-methyl-benzo[b]thiophen-3-yl)-ethylamino]-pyrimidin-4-yl}-benzoic acid] | 243 | 357 |
| COc1ccc(F)c2c(CCNc3cc(-c4ccc(C(=O)O)c(OC5CCC5)c4)ncn3)c(C)sc12 [Example 134, 2-Cyclobutoxy-4-{6-[2-(4-fluoro-7-methoxy-2-methyl-benzo[b]thiophen-3-yl)-ethylamino]-pyrimidin-4-yl}-benzoic acid] | 194 | 893 |
| COc1cc(Cl)cc2c(CCNc3cc(-c4ccc(C(=O)O)c(OC5CCC5)c4F)ncn3)c(C)oc12 [Example 147, 4-{6-[2-(5-Chloro-7-methoxy-2-methyl-benzofuran-3-yl)-ethylamino]-pyrimidin-4-yl}-2-cyclobutoxy-3-fluoro-benzoic acid] | 889 | 873 |
| Cc1sc2c(C)ccc(F)c2c1CCNc1cc(-c2cc(F)c(C(=O)O)c(OC3CCC3)c2)ncn1 [Example 148, 2-Cyclobutoxy-6-fluoro-4-{6-[2-(4-fluoro-2,7-dimethyl-benzo[b]thiophen-3-yl)-ethylamino]-pyrimidin-4-yl}-benzoic acid] | 238 | 43 |

Source: patent publication US11325899B2, “Benzofurane and benzothiophene derivatives as PGE2 receptor modulators” (IDORSIA PHARMACEUTICALS LTD, priority 2017, dated 2022)
